Test results published in PMC9848257, “Design and synthesis of novel rigid dibenzo[b,f]azepines through ring closure technique as promising anticancer candidates against leukaemia and acting as selective topoisomerase II inhibitors and DNA intercalators” (Journal of Enzyme Inhibition and Medicinal Chemistry, 2023).

Key:
SF-268 = assay: NCI-60 one-dose screen, SF-268; assay type: cell-based; conditions: Homo sapiens; SF-268, CNS cancer; single dose 10 μM; read-out: Growth inhibition %
Procedure: (§1) Anti-proliferative effects of the counterparts 4a–g and 5a–g were screened against 60 human cancer cell lines, following the Developmental Therapeutics Program protocol, National Cancer Institute[35].
(§2) The anti-tumour activity of the fourteen synthesised congeners was investigated at the NCI against a panel of 60 cancer cell lines (NCI-60 Cell One-Dose Screen). The tested dibenzo[b,f]azepine derivatives were screened at a single dose level (10 μM), Table 1.

EKVX = assay: NCI-60 one-dose screen, EKVX; assay type: cell-based; conditions: Homo sapiens, non-small cell lung cancer, single dose 10 μM, read-out: Growth inhibition %
Procedure: as §1, §2

NCI-H322M = assay: NCI-60 one-dose screen, NCI-H322M; assay type: cell-based; conditions: Homo sapiens, non-small cell lung cancer, single dose 10 μM, read-out: Growth inhibition %
Procedure: as §1, §2

SF-295 = assay: NCI-60 one-dose screen, SF-295; assay type: cell-based; conditions: Homo sapiens; SF-295, CNS cancer; single dose 10 μM; read-out: Growth inhibition %
Procedure: as §1, §2

K-562 = assay: NCI-60 one-dose screen, K-562; assay type: cell-based; conditions: Homo sapiens, K562; K-562, leukaemia; single dose 10 μM; read-out: Growth inhibition %
Procedure: as §1, §2

HOP-92 = assay: NCI-60 one-dose screen, HOP-92; assay type: cell-based; conditions: Homo sapiens; HOP-92, non-small cell lung cancer; single dose 10 μM; read-out: Growth inhibition %
Procedure: as §1, §2

SW-620 = assay: NCI-60 one-dose screen, SW-620; assay type: cell-based; conditions: Homo sapiens; SW-620, colon cancer; single dose 10 μM; read-out: Growth inhibition %
Procedure: as §1, §2

MALME-3M = assay: NCI-60 one-dose screen, MALME-3M; assay type: cell-based; conditions: Homo sapiens, melanoma, single dose 10 μM, read-out: Growth inhibition %
Procedure: as §1, §2

MDA-MB-468 = assay: NCI-60 one-dose screen, MDA-MB-468; assay type: cell-based; conditions: Homo sapiens; MDA-MB-468, breast cancer; single dose 10 μM; read-out: Growth inhibition %
Procedure: as §1, §2

HT29 = assay: NCI-60 one-dose screen, HT29; assay type: cell-based; conditions: Homo sapiens, HT-29; HT29, colon cancer; single dose 10 μM; read-out: Growth inhibition %
Procedure: as §1, §2

SR = assay: NCI-60 one-dose screen, SR; assay type: cell-based; conditions: Homo sapiens, leukaemia, single dose 10 μM, read-out: Growth inhibition %
Procedure: as §1, §2

TK-10 = assay: NCI-60 one-dose screen, TK-10; assay type: cell-based; conditions: Homo sapiens; TK-10, renal cancer; single dose 10 μM; read-out: Growth inhibition %
Procedure: as §1, §2

SK-MEL-5 = assay: NCI-60 one-dose screen, SK-MEL-5; assay type: cell-based; conditions: Homo sapiens; SK-MEL-5, melanoma; single dose 10 μM; read-out: Growth inhibition %
Procedure: as §1, §2

KM12 = assay: NCI-60 one-dose screen, KM12; assay type: cell-based; conditions: Homo sapiens; KM12, colon cancer; single dose 10 μM; read-out: Growth inhibition %
Procedure: as §1, §2

MOLT-4 = assay: NCI-60 one-dose screen, MOLT-4; assay type: cell-based; conditions: Homo sapiens; MOLT-4, leukaemia; single dose 10 μM; read-out: Growth inhibition %
Procedure: as §1, §2

UACC-257 = assay: NCI-60 one-dose screen, UACC-257; assay type: cell-based; conditions: Homo sapiens; UACC-257, melanoma; single dose 10 μM; read-out: Growth inhibition %
Procedure: as §1, §2

HOP-62 = assay: NCI-60 one-dose screen, HOP-62; assay type: cell-based; conditions: Homo sapiens; HOP-62, non-small cell lung cancer; single dose 10 μM; read-out: Growth inhibition %
Procedure: as §1, §2

HCT-15 = assay: NCI-60 one-dose screen, HCT-15; assay type: cell-based; conditions: Homo sapiens; HCT-15, colon cancer; single dose 10 μM; read-out: Growth inhibition %
Procedure: as §1, §2

NCI/ADR-RES = assay: NCI-60 one-dose screen, NCI/ADR-RES; assay type: cell-based; conditions: Homo sapiens, ovarian cancer, single dose 10 μM, read-out: Growth inhibition %
Procedure: as §1, §2

OVCAR-3 = assay: NCI-60 one-dose screen, OVCAR-3; assay type: cell-based; conditions: Homo sapiens; OVCAR-3, ovarian cancer; single dose 10 μM; read-out: Growth inhibition %
Procedure: as §1, §2

MCF-7 = assay: NCI-60 one-dose screen, MCF-7; assay type: cell-based; conditions: Homo sapiens, MCF7; MCF-7, breast cancer; single dose 10 μM; read-out: Growth inhibition %
Procedure: as §1, §2

RPMI-8226 = assay: NCI-60 one-dose screen, RPMI-8226; assay type: cell-based; conditions: Homo sapiens; RPMI-8226, leukaemia; single dose 10 μM; read-out: Growth inhibition %
Procedure: as §1, §2

786-0 = assay: NCI-60 one-dose screen, 786-0; assay type: cell-based; conditions: Homo sapiens; 786-0, renal cancer; single dose 10 μM; read-out: Growth inhibition %
Procedure: as §1, §2

UACC-62 = assay: NCI-60 one-dose screen, UACC-62; assay type: cell-based; conditions: Homo sapiens; UACC-62, melanoma; single dose 10 μM; read-out: Growth inhibition %
Procedure: as §1, §2

UO-31 = assay: NCI-60 one-dose screen, UO-31; assay type: cell-based; conditions: Homo sapiens; UO-31, renal cancer; single dose 10 μM; read-out: Growth inhibition %
Procedure: as §1, §2

U251 = assay: NCI-60 one-dose screen, U251; assay type: cell-based; conditions: Homo sapiens, U-251; U251, CNS cancer; single dose 10 μM; read-out: Growth inhibition %
Procedure: as §1, §2

DU-145 = assay: NCI-60 one-dose screen, DU-145; assay type: cell-based; conditions: Homo sapiens; DU-145, prostate cancer; single dose 10 μM; read-out: Growth inhibition %
Procedure: as §1, §2

CCRF-CEM = assay: NCI-60 one-dose screen, CCRF-CEM; assay type: cell-based; conditions: Homo sapiens, leukaemia, single dose 10 μM, read-out: Growth inhibition %
Procedure: as §1, §2

NCI-H522 = assay: NCI-60 one-dose screen, NCI-H522; assay type: cell-based; conditions: Homo sapiens; NCI-H522, non-small cell lung cancer; single dose 10 μM; read-out: Growth inhibition %
Procedure: as §1, §2

LOX IMVI = assay: NCI-60 one-dose screen, LOX IMVI; assay type: cell-based; conditions: Homo sapiens, melanoma, single dose 10 μM, read-out: Growth inhibition %
Procedure: as §1, §2

HS 578 T = assay: NCI-60 one-dose screen, HS 578 T; assay type: cell-based; conditions: Homo sapiens, breast cancer, single dose 10 μM, read-out: Growth inhibition %
Procedure: as §1, §2

SK-OV-3 = assay: NCI-60 one-dose screen, SK-OV-3; assay type: cell-based; conditions: Homo sapiens; SK-OV-3, ovarian cancer; single dose 10 μM; read-out: Growth inhibition %
Procedure: as §1, §2

PC-3 = assay: NCI-60 one-dose screen, PC-3; assay type: cell-based; conditions: Homo sapiens; PC-3, prostate cancer; single dose 10 μM; read-out: Growth inhibition %
Procedure: as §1, §2

ACHN = assay: NCI-60 one-dose screen, ACHN; assay type: cell-based; conditions: Homo sapiens, renal cancer, single dose 10 μM, read-out: Growth inhibition %
Procedure: as §1, §2

Row | SMILES | inhibition at 10 µM (SF-268) | inhibition at 10 µM (EKVX) | inhibition at 10 µM (NCI-H322M) | inhibition at 10 µM (SF-295) | inhibition at 10 µM (K-562) | inhibition at 10 µM (HOP-92) | inhibition at 10 µM (SW-620) | inhibition at 10 µM (MALME-3M) | inhibition at 10 µM (MDA-MB-468) | inhibition at 10 µM (HT29) | inhibition at 10 µM (SR) | inhibition at 10 µM (TK-10) | inhibition at 10 µM (SK-MEL-5) | inhibition at 10 µM (KM12) | inhibition at 10 µM (MOLT-4) | inhibition at 10 µM (UACC-257) | inhibition at 10 µM (HOP-62) | inhibition at 10 µM (HCT-15) | inhibition at 10 µM (NCI/ADR-RES) | inhibition at 10 µM (OVCAR-3) | further results
1 | O=C(NNC(=O)N1c2ccccc2C=Cc2ccccc21)c1ccc([N+](=O)[O-])cc1 [Compound 4e, N′-(4-Nitrobenzoyl)-5H-dibenzo[b,f]azepine-5-carbohydrazide] | < 10% | < 10% | < 10% | < 10% | < 10% | < 10% | < 10% | < 10% | < 10% | < 10% | < 10% | 10% | < 10% | < 10% | < 10% | < 10% | < 10% | < 10% | < 10% | < 10% | inhibition at 10 µM (MCF-7): < 10%; inhibition at 10 µM (RPMI-8226): < 10%; inhibition at 10 µM (786-0): < 10%; inhibition at 10 µM (UACC-62): < 10%; inhibition at 10 µM (UO-31): < 10%; inhibition at 10 µM (U251): < 10%; inhibition at 10 µM (DU-145): < 10%; inhibition at 10 µM (CCRF-CEM): < 10%; inhibition at 10 µM (NCI-H522): < 10%; melting point: 241 to 243 °C; inhibition at 10 µM (LOX IMVI): < 10%; inhibition at 10 µM (HS 578 T): < 10%; inhibition at 10 µM (SK-OV-3): < 10%; inhibition at 10 µM (PC-3): < 10%; inhibition at 10 µM (ACHN): < 10%
2 | O=C(NNC(=O)N1c2ccccc2C=Cc2ccccc21)c1ccc2ccccc2c1 [Compound 4f, N′-(2-Naphthoyl)-5H-dibenzo[b,f]azepine-5-carbohydrazide] | < 10% | 11% | < 10% | < 10% | 12.8% | 18.6% | < 10% | < 10% | 12.3% | 11.4% | 12.8% | < 10% | < 10% | < 10% | < 10% | < 10% | < 10% | < 10% | < 10% | < 10% | inhibition at 10 µM (MCF-7): 14%; inhibition at 10 µM (RPMI-8226): < 10%; inhibition at 10 µM (786-0): < 10%; inhibition at 10 µM (UACC-62): 18.9%; inhibition at 10 µM (UO-31): 12%; inhibition at 10 µM (U251): < 10%; inhibition at 10 µM (DU-145): < 10%; inhibition at 10 µM (CCRF-CEM): < 10%; inhibition at 10 µM (NCI-H522): 14.1%; melting point: 243 to 245 °C; inhibition at 10 µM (LOX IMVI): < 10%; inhibition at 10 µM (HS 578 T): < 10%; inhibition at 10 µM (SK-OV-3): < 10%; inhibition at 10 µM (PC-3): 25.1%; inhibition at 10 µM (ACHN): < 10%
